Results from ChEMBL document CHEMBL3813616, “Discovery of novel 7-azaindoles as PDK1 inhibitors” (Bioorg Med Chem Lett, 2016).

Legend:
[1] = Intrinsic clearance in mouse liver microsomes; format: ADME; settings: read-out: CLH
[2] = Permeability across apical to basolateral side in human Caco2 cells; format: ADME, cell-based; settings: Caco-2
[3] = target: Phosphatidylinositol 4,5-bisphosphate 3-kinase catalytic subunit alpha isoform (Homo sapiens, UniProt P42336); test: Inhibition of PI3K alpha (unknown origin) at 10 uM
[4] = target: Phosphatidylinositol 4,5-bisphosphate 3-kinase catalytic subunit delta isoform (Homo sapiens) (UniProt O00329); test: Inhibition of PI3K delta (unknown origin) at 10 uM
[5] = target: Homeodomain-interacting protein kinase 3 (Homo sapiens) (UniProt Q9H422); test: Inhibition of human HIPK3 (161 to 562 residues) assessed as enzyme activity at 1 uM using 33P ATP by radioactive filter binding assay; set-up: scale not given: the % may be the effect or the level left
Chain of Homeodomain-interacting protein kinase 3 (Homo sapiens) (Q9H422 whole entry, looked up, the tested form may be a part): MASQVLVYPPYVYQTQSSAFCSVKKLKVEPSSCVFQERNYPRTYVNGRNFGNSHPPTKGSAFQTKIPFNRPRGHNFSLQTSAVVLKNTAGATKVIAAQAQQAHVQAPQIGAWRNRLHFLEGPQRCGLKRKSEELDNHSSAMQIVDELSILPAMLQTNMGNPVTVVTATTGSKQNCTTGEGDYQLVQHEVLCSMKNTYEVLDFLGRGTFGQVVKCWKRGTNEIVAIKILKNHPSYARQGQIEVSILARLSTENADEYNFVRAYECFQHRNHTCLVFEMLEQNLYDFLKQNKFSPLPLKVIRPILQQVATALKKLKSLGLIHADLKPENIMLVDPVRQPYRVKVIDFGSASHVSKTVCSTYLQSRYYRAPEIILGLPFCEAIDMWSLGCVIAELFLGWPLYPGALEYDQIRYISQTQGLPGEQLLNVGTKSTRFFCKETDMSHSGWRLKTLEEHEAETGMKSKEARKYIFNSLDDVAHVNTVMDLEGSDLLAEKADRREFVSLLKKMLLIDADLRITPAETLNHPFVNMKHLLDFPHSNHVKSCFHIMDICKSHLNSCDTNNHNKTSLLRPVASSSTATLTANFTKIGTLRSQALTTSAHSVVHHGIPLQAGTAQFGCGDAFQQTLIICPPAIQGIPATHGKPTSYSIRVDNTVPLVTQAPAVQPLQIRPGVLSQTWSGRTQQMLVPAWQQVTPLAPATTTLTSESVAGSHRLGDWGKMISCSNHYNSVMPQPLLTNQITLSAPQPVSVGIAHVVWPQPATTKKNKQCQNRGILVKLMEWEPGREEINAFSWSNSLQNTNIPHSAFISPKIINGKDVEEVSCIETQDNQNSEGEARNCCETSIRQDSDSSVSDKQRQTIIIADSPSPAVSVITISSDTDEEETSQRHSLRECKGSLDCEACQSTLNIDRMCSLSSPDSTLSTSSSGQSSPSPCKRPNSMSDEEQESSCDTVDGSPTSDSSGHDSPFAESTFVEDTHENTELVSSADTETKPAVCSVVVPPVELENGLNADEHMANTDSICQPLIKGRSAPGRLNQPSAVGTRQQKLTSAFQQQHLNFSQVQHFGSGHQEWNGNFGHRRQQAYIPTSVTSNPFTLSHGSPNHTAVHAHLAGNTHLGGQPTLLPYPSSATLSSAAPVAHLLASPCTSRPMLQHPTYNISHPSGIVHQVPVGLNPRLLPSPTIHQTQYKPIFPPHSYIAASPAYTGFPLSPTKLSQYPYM

[6] = target: Mitogen-activated protein kinase 10 (Homo sapiens) (UniProt P53779); test: Inhibition of human JNK3alpha1 assessed as enzyme activity at 1 uM using 33P ATP by radioactive filter binding assay; set-up: scale not given: the % may be the effect or the level left
Chain of Mitogen-activated protein kinase 10 (Homo sapiens) (P53779 whole entry): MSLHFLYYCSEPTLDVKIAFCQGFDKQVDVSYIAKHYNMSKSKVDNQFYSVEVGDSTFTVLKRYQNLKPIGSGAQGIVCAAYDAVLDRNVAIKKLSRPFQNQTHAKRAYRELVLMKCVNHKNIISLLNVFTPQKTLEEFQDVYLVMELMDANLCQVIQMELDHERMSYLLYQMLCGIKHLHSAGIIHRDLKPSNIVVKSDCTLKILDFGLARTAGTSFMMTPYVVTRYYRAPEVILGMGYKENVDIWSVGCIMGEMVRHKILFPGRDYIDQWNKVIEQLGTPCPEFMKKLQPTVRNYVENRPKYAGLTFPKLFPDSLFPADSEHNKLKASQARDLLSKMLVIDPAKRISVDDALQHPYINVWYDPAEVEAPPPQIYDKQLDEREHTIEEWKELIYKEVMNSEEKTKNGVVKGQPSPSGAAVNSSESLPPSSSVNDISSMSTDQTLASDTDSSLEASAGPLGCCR

[7] = Solubility of the compound; format: physicochemical
[8] = target: Phosphatidylinositol 4,5-bisphosphate 3-kinase catalytic subunit beta isoform (Homo sapiens, UniProt P42338); test: Inhibition of PI3K beta (unknown origin)
Chain of Phosphatidylinositol 4,5-bisphosphate 3-kinase catalytic subunit beta isoform (P42338 whole entry, canonical isoform): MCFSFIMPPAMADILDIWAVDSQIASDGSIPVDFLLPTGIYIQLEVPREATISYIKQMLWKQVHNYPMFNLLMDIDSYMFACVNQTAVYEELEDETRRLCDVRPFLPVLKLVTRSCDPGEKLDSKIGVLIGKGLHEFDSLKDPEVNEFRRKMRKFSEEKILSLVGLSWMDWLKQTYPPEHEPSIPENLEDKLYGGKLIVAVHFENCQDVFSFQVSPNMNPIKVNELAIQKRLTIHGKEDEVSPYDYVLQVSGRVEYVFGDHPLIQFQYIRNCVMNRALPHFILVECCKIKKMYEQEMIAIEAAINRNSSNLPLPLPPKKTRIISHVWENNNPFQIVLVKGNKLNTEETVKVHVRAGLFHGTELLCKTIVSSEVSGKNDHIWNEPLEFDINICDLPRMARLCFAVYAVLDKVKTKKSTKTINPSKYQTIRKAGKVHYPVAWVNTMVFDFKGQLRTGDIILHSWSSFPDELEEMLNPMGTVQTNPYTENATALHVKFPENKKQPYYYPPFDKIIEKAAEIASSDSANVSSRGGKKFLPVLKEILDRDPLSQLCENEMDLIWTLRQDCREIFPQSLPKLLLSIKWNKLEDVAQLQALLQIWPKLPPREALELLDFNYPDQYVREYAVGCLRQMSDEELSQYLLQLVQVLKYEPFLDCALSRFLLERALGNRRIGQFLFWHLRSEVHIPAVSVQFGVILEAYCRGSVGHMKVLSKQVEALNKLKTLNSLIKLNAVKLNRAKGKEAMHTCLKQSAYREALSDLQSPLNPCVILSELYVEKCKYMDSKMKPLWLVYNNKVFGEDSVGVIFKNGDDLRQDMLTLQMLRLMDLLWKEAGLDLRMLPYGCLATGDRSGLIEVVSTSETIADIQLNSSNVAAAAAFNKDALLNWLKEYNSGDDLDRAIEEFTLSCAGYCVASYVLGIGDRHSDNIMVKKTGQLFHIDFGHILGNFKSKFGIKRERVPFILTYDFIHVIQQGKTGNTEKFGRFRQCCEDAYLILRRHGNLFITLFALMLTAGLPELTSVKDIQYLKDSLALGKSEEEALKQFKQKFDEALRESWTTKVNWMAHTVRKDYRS

[9] = target: Aurora kinase C (Homo sapiens) (UniProt Q9UQB9); test: Inhibition of AURKC (unknown origin) assessed as enzyme activity at 1 uM using 33P ATP by radioactive filter binding assay; set-up: scale not given: the % may be the effect or the level left
Chain of Aurora kinase C (Homo sapiens) (Q9UQB9 whole entry): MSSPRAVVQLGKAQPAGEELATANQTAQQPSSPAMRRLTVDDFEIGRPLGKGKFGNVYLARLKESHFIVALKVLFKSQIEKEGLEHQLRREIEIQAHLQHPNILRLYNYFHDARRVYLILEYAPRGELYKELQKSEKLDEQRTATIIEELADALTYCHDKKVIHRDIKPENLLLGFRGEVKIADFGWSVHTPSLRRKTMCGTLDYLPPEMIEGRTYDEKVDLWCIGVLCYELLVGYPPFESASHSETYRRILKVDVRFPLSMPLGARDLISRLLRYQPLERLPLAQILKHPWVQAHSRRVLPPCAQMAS

[10] = Efflux ratio of permeability from basolateral to apical over apical to basolateral side in human Caco2 cells; format: ADME, cell-based; settings: Caco-2
MAPK3 (ERK1) = test: Inhibition of human MAPK3 (2 to 379 residues) assessed as enzyme activity at 1 uM using 33P ATP by radioactive filter binding assay; set-up: scale not given: the % may be the effect or the level left
[11] = target: Interleukin-1 receptor-associated kinase 1 (Homo sapiens) (UniProt P51617); test: Inhibition of human IRAK1 (1 to 712 residues) assessed as enzyme activity at 1 uM using 33P ATP by radioactive filter binding assay; set-up: scale not given: the % may be the effect or the level left
[12] = target: Serine/threonine-protein kinase STK11 (Homo sapiens) (UniProt Q15831); test: Inhibition of human LKB1 (1 to 433 residues) assessed as enzyme activity at 1 uM using 33P ATP by radioactive filter binding assay; set-up: scale not given: the % may be the effect or the level left
Chain of Serine/threonine-protein kinase STK11 (Homo sapiens) (Q15831 whole entry, the tested form may be a part): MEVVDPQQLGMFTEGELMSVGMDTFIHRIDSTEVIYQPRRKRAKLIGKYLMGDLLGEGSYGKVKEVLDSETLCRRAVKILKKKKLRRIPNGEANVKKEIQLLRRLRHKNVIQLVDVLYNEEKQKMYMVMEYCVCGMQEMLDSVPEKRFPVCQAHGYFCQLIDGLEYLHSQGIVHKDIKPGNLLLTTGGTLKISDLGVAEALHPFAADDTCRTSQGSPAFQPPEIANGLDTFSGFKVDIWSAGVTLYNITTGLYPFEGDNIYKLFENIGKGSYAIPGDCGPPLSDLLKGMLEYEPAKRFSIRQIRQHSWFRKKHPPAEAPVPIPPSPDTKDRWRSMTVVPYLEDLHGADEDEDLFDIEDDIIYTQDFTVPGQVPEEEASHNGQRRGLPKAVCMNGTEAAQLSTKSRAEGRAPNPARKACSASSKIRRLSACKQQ

[13] = target: Serine/threonine-protein kinase MARK2 (Homo sapiens) (UniProt Q7KZI7); test: Inhibition of human MARK2 (2 to 691 residues) assessed as enzyme activity at 1 uM using 33P ATP by radioactive filter binding assay; set-up: scale not given: the % may be the effect or the level left
[14] = target: MAP/microtubule affinity-regulating kinase 4 (Homo sapiens) (UniProt Q96L34); test: Inhibition of human MARK4 (2 to 752 residues) assessed as enzyme activity at 1 uM using 33P ATP by radioactive filter binding assay; set-up: scale not given: the % may be the effect or the level left
[15] = target: Mitogen-activated protein kinase kinase kinase 1 (Homo sapiens) (UniProt Q13233); test: Inhibition of human MEKK1 (877 to 1563 residues) assessed as enzyme activity at 1 uM using 33P ATP by radioactive filter binding assay; set-up: scale not given: the % may be the effect or the level left
[16] = target: Mitogen-activated protein kinase kinase kinase 9 (Homo sapiens) (UniProt P80192); test: Inhibition of human MLK1 (132 to 413 residues) assessed as enzyme activity at 1 uM using 33P ATP by radioactive filter binding assay; set-up: scale not given: the % may be the effect or the level left
[17] = target: Receptor-interacting serine/threonine-protein kinase 2 (Homo sapiens) (UniProt O43353); test: Inhibition of human RIPK2 (2 to 311 residues) assessed as enzyme activity at 1 uM using 33P ATP by radioactive filter binding assay; set-up: scale not given: the % may be the effect or the level left
[18] = target: Ribosomal protein S6 kinase alpha-1 (Homo sapiens) (UniProt Q15418); test: Inhibition of human RSK1 (1 to 735 residues) assessed as enzyme activity at 1 uM using 33P ATP by radioactive filter binding assay; set-up: scale not given: the % may be the effect or the level left
[19] = target: Serine/threonine-protein kinase 33 (Homo sapiens) (UniProt Q9BYT3); test: Inhibition of human STK33 (1 to 514 residues) assessed as enzyme activity at 1 uM using 33P ATP by radioactive filter binding assay; set-up: scale not given: the % may be the effect or the level left
[20] = target: High affinity nerve growth factor receptor (Homo sapiens) (UniProt P04629); test: Inhibition of human TrkA (441 to 760 residues) assessed as enzyme activity at 1 uM using 33P ATP by radioactive filter binding assay; set-up: scale not given: the % may be the effect or the level left
[21] = target: Dual specificity protein kinase TTK (Homo sapiens) (UniProt P33981); test: Inhibition of human TTK (1 to 857 residues) assessed as enzyme activity at 1 uM using 33P ATP by radioactive filter binding assay; set-up: scale not given: the % may be the effect or the level left
[22] = target: Tyrosine-protein kinase ZAP-70 (Homo sapiens) (UniProt P43403); test: Inhibition of human ZAP70 (1 to 619 residues) assessed as enzyme activity at 1 uM using 33P ATP by radioactive filter binding assay; set-up: scale not given: the % may be the effect or the level left
[23] = target: Tyrosine-protein kinase ABL1 (Homo sapiens) (UniProt P00519); test: Inhibition of human ABL (118 to 535 residues) assessed as enzyme activity at 1 uM using 33P ATP by radioactive filter binding assay; set-up: scale not given: the % may be the effect or the level left
[24] = target: Mitogen-activated protein kinase kinase kinase 5 (Homo sapiens) (UniProt Q99683); test: Inhibition of human ASK1 (670 to 950 residues) assessed as enzyme activity at 1 uM using 33P ATP by radioactive filter binding assay; set-up: scale not given: the % may be the effect or the level left
Chain of Mitogen-activated protein kinase kinase kinase 5 (Homo sapiens) (Q99683 whole entry, the tested form may be a part): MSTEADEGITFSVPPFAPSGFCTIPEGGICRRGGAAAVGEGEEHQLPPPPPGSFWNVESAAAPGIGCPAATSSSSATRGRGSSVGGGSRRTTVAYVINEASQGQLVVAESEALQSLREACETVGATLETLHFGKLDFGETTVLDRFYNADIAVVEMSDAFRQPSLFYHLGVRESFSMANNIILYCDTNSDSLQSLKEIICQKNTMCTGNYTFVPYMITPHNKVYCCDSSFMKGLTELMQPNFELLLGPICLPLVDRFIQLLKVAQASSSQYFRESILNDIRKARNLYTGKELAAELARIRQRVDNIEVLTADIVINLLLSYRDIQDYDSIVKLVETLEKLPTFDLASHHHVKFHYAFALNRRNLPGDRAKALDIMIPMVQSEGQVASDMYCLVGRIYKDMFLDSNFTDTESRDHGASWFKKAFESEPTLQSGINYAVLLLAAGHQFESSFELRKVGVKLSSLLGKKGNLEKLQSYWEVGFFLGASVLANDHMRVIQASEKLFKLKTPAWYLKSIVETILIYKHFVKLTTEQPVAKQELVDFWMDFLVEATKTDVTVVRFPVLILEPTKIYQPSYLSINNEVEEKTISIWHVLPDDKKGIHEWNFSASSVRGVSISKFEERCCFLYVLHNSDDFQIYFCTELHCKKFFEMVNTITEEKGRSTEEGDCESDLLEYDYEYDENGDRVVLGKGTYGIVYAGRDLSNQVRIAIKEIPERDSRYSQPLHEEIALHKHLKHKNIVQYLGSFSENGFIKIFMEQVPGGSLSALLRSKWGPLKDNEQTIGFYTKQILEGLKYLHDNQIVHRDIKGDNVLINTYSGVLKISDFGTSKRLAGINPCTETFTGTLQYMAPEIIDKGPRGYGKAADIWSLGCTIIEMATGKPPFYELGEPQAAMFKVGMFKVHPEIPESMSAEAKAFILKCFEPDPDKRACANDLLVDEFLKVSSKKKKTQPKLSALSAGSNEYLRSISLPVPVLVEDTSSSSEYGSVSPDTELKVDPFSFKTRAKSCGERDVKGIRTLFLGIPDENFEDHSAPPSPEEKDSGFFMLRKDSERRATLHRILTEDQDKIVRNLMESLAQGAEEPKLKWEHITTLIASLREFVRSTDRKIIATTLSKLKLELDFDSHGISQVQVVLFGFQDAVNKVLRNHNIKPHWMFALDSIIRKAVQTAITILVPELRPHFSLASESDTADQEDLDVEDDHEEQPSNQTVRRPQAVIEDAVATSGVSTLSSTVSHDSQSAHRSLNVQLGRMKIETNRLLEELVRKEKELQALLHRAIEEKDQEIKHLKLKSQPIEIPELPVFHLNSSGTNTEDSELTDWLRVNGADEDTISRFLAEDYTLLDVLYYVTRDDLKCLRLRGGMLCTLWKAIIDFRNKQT

[25] = target: Aurora kinase A (Homo sapiens) (UniProt O14965); test: Inhibition of human Aurora A (2 to 403 residues) assessed as enzyme activity at 1 uM using 33P ATP by radioactive filter binding assay; set-up: scale not given: the % may be the effect or the level left
[26] = target: Serine/threonine-protein kinase BRSK1 (Homo sapiens) (UniProt Q8TDC3); test: Inhibition of human BRSK1 (2 to 778 residues) assessed as enzyme activity at 1 uM using 33P ATP by radioactive filter binding assay; set-up: scale not given: the % may be the effect or the level left
[27] = target: Ephrin type-A receptor 4 (Homo sapiens) (UniProt P54764); test: Inhibition of human EPHA4 (570 to 986 residues) assessed as enzyme activity at 1 uM using 33P ATP by radioactive filter binding assay; set-up: scale not given: the % may be the effect or the level left
[28] = target: Ephrin type-B receptor 4 (Homo sapiens) (UniProt P54760); test: Inhibition of human EPHB4 (561 to 987 residues) assessed as enzyme activity at 1 uM using 33P ATP by radioactive filter binding assay; set-up: scale not given: the % may be the effect or the level left
[29] = target: Mitogen-activated protein kinase 1 (Homo sapiens) (UniProt P28482); test: Inhibition of human ERK2 (2 to 360 residues) assessed as enzyme activity at 1 uM using 33P ATP by radioactive filter binding assay; set-up: scale not given: the % may be the effect or the level left
[30] = target: Receptor tyrosine-protein kinase erbB-4 (Homo sapiens) (UniProt Q15303); test: Inhibition of human HER4 (706 to 991 residues) assessed as enzyme activity at 1 uM using 33P ATP by radioactive filter binding assay; set-up: scale not given: the % may be the effect or the level left
[31] = target: Homeodomain-interacting protein kinase 1 (Homo sapiens) (UniProt Q86Z02); test: Inhibition of human HIPK1 (158 to 555 residues) assessed as enzyme activity at 1 uM using 33P ATP by radioactive filter binding assay; set-up: scale not given: the % may be the effect or the level left

Q: What does the source list for CCc1cc(-c2c[nH]c3ncc(-c4cnn(C5CCNCC5)c4)cc23)nc(N)n1?
A: microsomal CLint [1]: < 10 µL/min/mg; Papp A→B [2]: 1.3 ×10⁻⁶ cm/s; inhibition [3]: 80%; inhibition [4]: 77%

Q: Which Activity [5] does the source give for CCCCc1cc(-c2c[nH]c3ncccc23)nc(N)n1 here?
A: The Activity was -52%.

Q: What about the Activity [6] of the same molecule?
A: Its Activity is 1%.

Q: And the solubility [7]?
A: Its solubility is over 1000 µg/mL.

Q: And the IC50 [8]?
A: Its IC50 is over 10 µM.

Q: And the Activity [9]?
A: Its Activity is -15%.

Q: With CCCCc1cc(-c2c[nH]c3ncc(-c4cnn(C5CCNCC5)c4)cc23)nc(N)n1 as the molecule, how does the microsomal CLint [1] read?
A: Its microsomal CLint is under 10 µL/min/mg.

Q: What about the Papp A→B [2] of the same molecule?
A: The Papp A→B was 0.3 ×10⁻⁶ cm/s.

Q: And the Ratio [10]?
A: The Ratio was 37.

Q: And the IC50 [8]?
A: The IC50 was over 30 µM.

Q: And the Activity (MAPK3 (ERK1))?
A: Its Activity is -32%.

Q: Which Activity [5] does the source give for Nc1nccc(-c2c[nH]c3ncccc23)n1 [MERIOLIN 1] here?
A: The Activity was -69%.

Q: What about the Activity [11] of the same molecule?
A: The Activity was -49%.

Q: What about the Activity [6] of the same molecule?
A: Its Activity is -11%.

Q: And the Activity [12]?
A: The Activity was -18%.

Q: And the Activity [13]?
A: Its Activity is -23%.

Q: And the Activity [14]?
A: The Activity was 35%.

Q: And the Activity [15]?
A: The Activity was -10%.

Q: What about the Activity [16] of the same molecule?
A: The Activity was -20%.

Q: What about the Activity [17] of the same molecule?
A: Its Activity is -13%.

Q: What about the Activity [18] of the same molecule?
A: The Activity was -69%.

Q: And the Activity [19]?
A: The Activity was -23%.

Q: What about the Activity [20] of the same molecule?
A: The Activity was -30%.

Q: And the Activity [21]?
A: Its Activity is -57%.

Q: What about the Activity [22] of the same molecule?
A: Its Activity is -3%.

Q: What about the Activity [23] of the same molecule?
A: The Activity was 1%.

Q: And the Activity [24]?
A: Its Activity is -4%.

Q: And the Activity [9]?
A: The Activity was -3%.

Q: What about the Activity [25] of the same molecule?
A: Its Activity is 1%.

Q: And the Activity [26]?
A: The Activity was -4%.

Q: And the Activity [27]?
A: The Activity was 15%.

Q: And the Activity [28]?
A: Its Activity is 4%.

Q: And the Activity [29]?
A: The Activity was -14%.

Q: And the Activity [30]?
A: Its Activity is -17%.

Q: What about the Activity [31] of the same molecule?
A: The Activity was -75%.
